Measurements as given in patent publication EP4800018A1, “PAN-KRAS INHIBITOR AND USE THEREOF IN MEDICINES” (Betta Pharmaceuticals Co., Ltd., priority 2023, dated 2025).

Experiments:
[1] = test system: KRAS-G12D mutant tumor cells AGS; experiment: Cell Proliferation Inhibition Assay (AGS), Cell-titer GLO, 96 h; format: cell-based; settings: Homo sapiens, AGS, 96 h, AGS cells, 96 h incubation, Cell-titer GLO; read-out: AGS(G12D)
Summary of the method: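 Inhibition % was derived from CellTiter-Glo luminescence (max minus measured, over max minus blank) and fitted to give IC50. Cells were KRAS-G12D AGS in low-attachment wells, treated for 96 h at 37°C.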

[2] = test system: KRAS-G12V mutant tumor cells SW620; experiment: Cell Proliferation Inhibition Assay (SW620), Cell-titer GLO, 96 h; format: cell-based; settings: Homo sapiens, SW-620, 96 h, SW620 cells, 96 h incubation, Cell-titer GLO; read-out: SW620(G12V)
Summary of the method: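 Readout: Cell-titer GLO luminescence after 96 h at 37°C, converted to percent inhibition against 0.5% DMSO and blank controls, with IC50 from curve fit. Low-attachment SW620 cultures (1×10^3 cells/well) were dosed at 10000–0.03 nM final.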

[3] = PK Study of Compounds in Mice; format: in vivo, Female ICR mice; settings: mean; for Cmax: read-out: C0/Cmax
Experimental: (§1) The test compound was mixed with the vehicle (10% DMSO/5% Solutol/85% physiological saline), vortexed and sonicated to prepare a clear 0.2 mg/mL intravenous injection solution. The test compound was mixed with the vehicle (20% PEG400/10% Solutol/70% pH 4.5 acetate buffer), vortexed and sonicated to prepare a clear 1 mg/mL oral solution. Female ICR mice aged 6 to 7 weeks were selected and administered the test compound via intravenous (IV) and oral (PO) routes, respectively. Whole blood samples were collected at 5 min, 15 min, 30 min, 1 h, 2 h, 4 h, 7 h, and 24 h for the intravenous route, and at 15 min, 30 min, 1 h, 2 h, 4 h, 7 h, and 24 h for the oral route. Drug concentrations were analyzed by LC-MS/MS method, and pharmacokinetic parameters were calculated using Phoenix WinNonlin software (Pharsight, USA).

[4] = PK Study of Compounds in Dogs; format: in vivo, Beagle dogs; settings: mean; for Cmax: read-out: C0/Cmax
Experimental: The test compound was mixed with the vehicle (10% DMSO/5% Solutol/85% physiological saline), vortexed and sonicated to prepare a clear 1 mg/mL intravenous injection solution. The test compound was mixed with the vehicle (10% DMSO + 5% HS15 + 85% 10 mM aqueous citric acid solution), vortexed and sonicated to prepare a clear 0.6 mg/mL oral solution. Beagle dogs (two males, one female) were selected and administered the test compound via intravenous (IV) and oral (PO) routes, respectively. Whole blood samples were collected at 0 min, 5 min, 15 min, 30 min, 1 h, 2 h, 4 h, 6 h, 8 h, 12 h, 24 h, 48 h, and 72 h for the intravenous route, and at 0 min, 15 min, 30 min, 1 h, 2 h, 4 h, 6 h, 8 h, 12 h, 24 h, 48 h, and 72 h for the oral route. Drug concentrations were analyzed by LC-MS/MS method, and pharmacokinetic parameters were calculated using Phoenix WinNonlin software (Pharsight, USA).

[5] = PK Study of Compounds in Rats; format: in vivo, Male SD rats; settings: mean; for AUC(0-t): read-out: AUC0-t; for Cmax: read-out: C0/Cmax
Experimental: as §1, with “0.5” for “0.2”, “Male SD rats” for “Female ICR mice”

KRAS G12V-cRAF = target: T1, KRAS G12V-cRAF (Homo sapiens, UniProt P01116, G12V); experiment: Cellular KRAS G12V-cRAF Binding Inhibition Assay (NanoBRET, AD293 stable cells); format: cell-based; settings: 3 h incubation, read-out: NanoBRET KRAS G12V
T1 construct: expressed in transfected cells
Summary of the method: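 Binding measured as BRET between NanoLuc and HaloTag-bound NanoBRET 618 ligand (added overnight) in stably expressing AD293 cells. Signals were converted to percent inhibition against max and blank wells and fitted for IC50.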

[6] = PO 10 mg/kg vs IV 1 mg/kg (n=3)
[7] = female, ICR, mouse, whole blood, IV 1 mg/kg (n=3)
[8] = female, ICR, mouse, whole blood, PO 10 mg/kg (n=3)
[9] = both sexes, beagle, dog, whole blood, IV 1 mg/kg (n=3)
[10] = both sexes, beagle, dog, whole blood, PO 3 mg/kg (n=3)
[11] = male, SD, rat, whole blood, IV 1 mg/kg (n=3)
[12] = male, SD, rat, whole blood, PO 10 mg/kg (n=3)

T1 sequence (P01116 1-188 isoform P01116-2 G12V): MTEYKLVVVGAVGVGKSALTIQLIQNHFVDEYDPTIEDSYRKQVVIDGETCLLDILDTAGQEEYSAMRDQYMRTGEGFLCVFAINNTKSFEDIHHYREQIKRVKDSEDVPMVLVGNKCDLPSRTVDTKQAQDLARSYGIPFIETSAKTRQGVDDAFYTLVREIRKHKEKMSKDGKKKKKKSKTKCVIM

CC1OCCCn2c(c3c4cc(ccc42)-c2csc(n2)CC(NC(=O)C2C(C)C2C)C(=O)N2NC(C(=O)OCC(C)(C)C3)C3CC2C3)-c2cc(N3CCN(C)CC3)cnc21 [Example 186, (1r,2R,3S)-2,3-dimethyl-N-((1^5S,6^4S,4S,Z)-1^5,10,10-trimethyl-1^2-(4-methylpiperazin-1-yl)-5,7-dioxo-1^8,1^9-dihydro-1^5H,1^7H-8-oxa-6^2,6^3-diaza-1(13,15)-pyrido[3',2':7,8][1,5]oxazonino[5,6-a]indola-2(4,2)-thiazola-6(2,4)-bicyclo[3.1.1]heptanacycloundecaphane-4-yl)cyclopropane-1-carbox amide]
IC50 [1]: 0.42 nM | IC50 [2]: 0.15 nM | F [3, 6]: 31.1 | AUC(0-t) [3, 7]: 3260 ng·h/mL | clearance [3, 7]: 4.45 mL/min/kg | half-life [3, 7]: 9.31 h | Cmax [3, 7]: 571 ng/mL | Vd ([3]; female, ICR, mouse, whole blood, IV 1 mg/kg (n=3), read-out: Vss): 3.09 L/kg | AUC(0-t) [3, 8]: 10100 ng·h/mL | Tmax [3, 8]: 4 h | Cmax [3, 8]: 679 ng/mL | F ([4]; PO 3 mg/kg vs IV 1 mg/kg (n=3)): 41.2 | AUC(0-t) [4, 9]: 16600 ng·h/mL | clearance [4, 9]: 0.659 mL/min/kg | half-life [4, 9]: 34.8 h | Cmax [4, 9]: 2020 ng/mL | Vd ([4]; both sexes, beagle, dog, whole blood, IV 1 mg/kg (n=3), read-out: Vss): 2.62 L/kg | AUC(0-t) [4, 10]: 20500 ng·h/mL | Tmax [4, 10]: 1.17 h | Cmax [4, 10]: 608 ng/mL | F [5, 6]: 19.5 | clearance [5, 11]: 1.93 mL/min/kg | half-life [5, 11]: 8.4 h | AUC(0-t) [5, 11]: 7510 ng·h/mL | Cmax [5, 11]: 4250 ng/mL | Vd ([5]; male, SD, rat, whole blood, IV 1 mg/kg (n=3), read-out: Vss): 1.2 L/kg | AUC(0-t) [5, 12]: 14600 ng·h/mL | Cmax [5, 12]: 1370 ng/mL | Tmax ([5]; male, SD, rat, whole blood, PO 10 mg/kg (n=3), read-out: Tmax): 4 h | IC50 (KRAS G12V-cRAF): 5.4 nM
